Drawing on PubChem BioAssay (NCI), this text covers GI50 and TGI for 8 molecules.

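The compound was tested at five concentrations on cells cultured in 96-well plates, with a 48-hour exposure period. Abbreviation: GI50, concentration required for 50% inhibition of growth. TGI: concentration producing complete growth inhibition.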 Some results are limits rather than exact numbers.

Test systems include A549 NSCLC; CAKI-1 renal; CCRF-CEM leukemia; HT29 colon; M14 melanoma; NCI-H23 lung; NCI-H460 lung; OVCAR-5 ovarian; SK-OV-3 ovarian; UACC-257 melanoma.
Test in all cases: NCI-60 cell line screen, 48 h

Turning to `Clc1cc(Cl)c(Cl)c(-c2nc(-c3cccnc3)cs2)c1`, the GI50 in the assay on A549 NSCLC was 24.8 µM; in the assay on CAKI-1 renal, 7.43 µM; in the assay with CCRF-CEM leukemia, 8.52 µM; in the assay with HT29 colon it was 12.1 µM; in the assay with M14 melanoma it was 4.47 µM; in the assay on NCI-H23 lung it was 30 µM. Moreover, the GI50 with NCI-H460 lung is 37.7 µM; with OVCAR-5 ovarian, 32.3 µM; in the assay with SK-OV-3 ovarian it was > 100 µM; in the assay with UACC-257 melanoma it was 15.3 µM. The TGI in the assay with A549 NSCLC is > 100 µM; in the assay on CAKI-1 renal it was 78.7 µM; in the assay on CCRF-CEM leukemia, 42 µM; with HT29 colon, > 100 µM; with M14 melanoma, > 100 µM; in the assay on NCI-H23 lung it was > 100 µM. Further, the TGI in the assay on NCI-H460 lung is > 100 µM; with OVCAR-5 ovarian it was 92.8 µM; in the assay with SK-OV-3 ovarian, > 100 µM; with UACC-257 melanoma, 64.8 µM.
Take `Cc1n[nH]c(=S)n1/N=C/c1ccc(F)c(Oc2ccccc2)c1`: the GI50 in the assay on A549 NSCLC was 42.2 µM; in the assay with CAKI-1 renal, 0.496 µM; in the assay on CCRF-CEM leukemia, 40.5 µM; in the assay with HT29 colon, 27.5 µM; with M14 melanoma, 36.9 µM; with NCI-H23 lung, 42.2 µM. Besides, the GI50 is 39 µM in the assay on NCI-H460 lung, > 100 µM in the assay on OVCAR-5 ovarian, > 100 µM with SK-OV-3 ovarian and 25.4 µM in the assay on UACC-257 melanoma. The TGI in the assay on A549 NSCLC was > 100 µM; with CAKI-1 renal it was 0.944 µM; in the assay on CCRF-CEM leukemia it was > 100 µM; with HT29 colon, > 100 µM; with M14 melanoma, > 100 µM; with NCI-H23 lung, > 100 µM. The TGI in the assay on NCI-H460 lung is > 100 µM; with OVCAR-5 ovarian, > 100 µM; with SK-OV-3 ovarian, > 100 µM; in the assay with UACC-257 melanoma it was 75.3 µM.
Take `Cc1cc(C)c(O)c(Cc2cccc(Cc3cc(C)cc(C)c3O)c2O)c1`: the TGI in the assay on A549 NSCLC, with CAKI-1 renal, with CCRF-CEM leukemia, in the assay with HT29 colon, in the assay on M14 melanoma and with NCI-H23 lung was > 100 µM each time. Further, the TGI in the assay on NCI-H460 lung, in the assay on OVCAR-5 ovarian, in the assay on SK-OV-3 ovarian and with UACC-257 melanoma was > 100 µM in each case.
As to `COc1cc(/C=C/C(=O)c2ccc(Nc3ncnc4ccccc34)cc2)cc(OC)c1`, the GI50 with A549 NSCLC was 3.2 µM; in the assay on CAKI-1 renal, 19.3 µM; in the assay on CCRF-CEM leukemia, 4.04 µM; in the assay on HT29 colon, 2.07 µM; with M14 melanoma it was 3.95 µM; in the assay on NCI-H23 lung, 5.08 µM. Further, the GI50 with NCI-H460 lung is 14.2 µM; in the assay on OVCAR-5 ovarian, 20.3 µM; in the assay with SK-OV-3 ovarian it was 3.6 µM; in the assay with UACC-257 melanoma it was 9.7 µM. For the same molecule, the TGI is 14.4 µM with A549 NSCLC; > 100 µM with CAKI-1 renal; 22.8 µM in the assay with CCRF-CEM leukemia; 4.05 µM in the assay on HT29 colon; 14.6 µM in the assay on M14 melanoma; 38.2 µM with NCI-H23 lung. In addition, the TGI with NCI-H460 lung was > 100 µM; with OVCAR-5 ovarian, 57.3 µM; with SK-OV-3 ovarian, 10.7 µM; in the assay with UACC-257 melanoma it was 34.1 µM.
On to `COc1ccc(/C(C)=C(\c2ccc(Cl)cc2)c2ccc(OCCN3CCCC3)cc2)cc1F`, for which the GI50 in the assay on A549 NSCLC was 3.01 µM; in the assay with CAKI-1 renal it was 3.43 µM; with CCRF-CEM leukemia it was 4.24 µM; with HT29 colon, 0.724 µM; with M14 melanoma it was 0.882 µM; with NCI-H23 lung it was 3.55 µM. Also, the GI50 in the assay on NCI-H460 lung was 2.1 µM; in the assay with OVCAR-5 ovarian, 3.15 µM; with SK-OV-3 ovarian it was 4.18 µM; in the assay on UACC-257 melanoma, 0.872 µM. Further, the TGI in the assay on A549 NSCLC came to 7.01 µM; in the assay with CAKI-1 renal, 6.69 µM; with CCRF-CEM leukemia, 10.7 µM; with HT29 colon, 3.47 µM; with M14 melanoma it was 3.09 µM; in the assay with NCI-H23 lung, 7.27 µM. Also, the TGI in the assay on NCI-H460 lung came to 5.29 µM; in the assay with OVCAR-5 ovarian, 6.37 µM; in the assay with SK-OV-3 ovarian, 7.86 µM; in the assay with UACC-257 melanoma, 3.2 µM.
Regarding `COC(=O)C(C(=O)C(=O)Nc1ccccc1C(C)=O)c1nc2ccc(Cl)cc2[nH]c1=O` (stereo not given), the TGI with A549 NSCLC, with CAKI-1 renal, in the assay with CCRF-CEM leukemia, in the assay with HT29 colon, in the assay with M14 melanoma and with NCI-H23 lung was > 100 µM each time. The TGI in the assay on NCI-H460 lung, in the assay on OVCAR-5 ovarian, in the assay on SK-OV-3 ovarian and in the assay on UACC-257 melanoma was > 100 µM each time.
On to `COc1cc(C#N)cc(OC)c1OCCOCCOc1c(OC)cc(C#N)cc1OC`, for which the GI50 in the assay with A549 NSCLC was > 100 µM; with CAKI-1 renal it was > 100 µM; with CCRF-CEM leukemia, 38.8 µM; in the assay on HT29 colon, > 100 µM; with M14 melanoma it was 52.2 µM; in the assay on NCI-H23 lung it was > 100 µM. For the same molecule, the GI50 was 84.6 µM with NCI-H460 lung, > 100 µM in the assay with OVCAR-5 ovarian, > 100 µM in the assay on SK-OV-3 ovarian and 99.1 µM in the assay on UACC-257 melanoma. The TGI in the assay with A549 NSCLC, with CAKI-1 renal, in the assay on CCRF-CEM leukemia, in the assay with HT29 colon, with M14 melanoma and with NCI-H23 lung was > 100 µM in each case. The TGI in the assay on NCI-H460 lung, in the assay on OVCAR-5 ovarian, in the assay with SK-OV-3 ovarian and with UACC-257 melanoma was > 100 µM throughout.
With `O=C(Nc1n[nH]c2nc(-c3ccco3)ccc12)C1CC1`, the GI50 in the assay on A549 NSCLC, in the assay on CAKI-1 renal, with CCRF-CEM leukemia, in the assay with HT29 colon, with M14 melanoma and with NCI-H23 lung was > 25 µM each time. The GI50 in the assay with NCI-H460 lung, in the assay on OVCAR-5 ovarian, with SK-OV-3 ovarian and with UACC-257 melanoma was > 25 µM in each case. Moreover, the TGI in the assay with A549 NSCLC, in the assay on CAKI-1 renal, in the assay on CCRF-CEM leukemia, in the assay with HT29 colon, with M14 melanoma and in the assay on NCI-H23 lung was > 25 µM in each case. Besides, the TGI in the assay with NCI-H460 lung, in the assay on OVCAR-5 ovarian, with SK-OV-3 ovarian and in the assay on UACC-257 melanoma was > 25 µM each time.
